The supplement of paper PMC10307832

Experiments:
Assay in all cases: relative viability (nuclei count vs DMSO), 5 days (fraction); higher = more cells survive
[1] = compound: CN1CCC(CNc2ccc3ncc(-c4cccc(OC(F)(F)F)c4)n3n2)CC1 [SGI-1776] + Nc1nc2[nH]cc(CCc3ccc(C(=O)N[C@@H](CCC(=O)O)C(=O)O)cc3)c2c(=O)[nH]1 [Pemetrexed] (partner 0.2 µM)
How it was run: (§1)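 Nuclei were stained with Hoechst during a one-step fixation (final 0.05% Triton X-100, 1% formaldehyde, 1 ug/ml Hoechst) carried out 5 days after dosing, then counted on 4× images. The cells, lung cancer lines in 1536-well plates, had been dosed by pin tool the day after seeding with one drug alone or a fixed anchor-drug dose plus five library-drug doses (not always all listed) in √10 steps. Relative viability is the nuclei count in treated wells divided by that in vehicle wells, and each value is the median of duplicate plates.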

[2] = compound: Nc1ccccc1NC(=O)c1ccc(CNC(=O)OCc2cccnc2)cc1 [Entinostat] + Nc1ncn([C@H]2C[C@H](O)[C@@H](CO)O2)c(=O)n1 [Decitabine] (partner 2 µM)
How it was run: as §1

[3] = compound: Nc1ccccc1NC(=O)c1ccc(CNC(=O)OCc2cccnc2)cc1 [Entinostat] + Cc1cc(Nc2cc(N3CCN(C)CC3)nc(Sc3ccc(NC(=O)C4CC4)cc3)n2)n[nH]1 [Tozasertib] (partner 0.1 µM)
How it was run: as §1

[4] = compound: C1COCCN1C2=NC(=NC3=C2OC4=C3C=CC=N4)C5=CC(=CC=C5)NC(=O)C6=CN=C(C=C6)N + COc1cc2c(Oc3ccc(NC(=O)C4(C(=O)Nc5ccc(F)cc5)CC4)cc3F)ccnc2cc1OCCCN1CCOCC1 [Foretinib] (partner 0.25 µM)
How it was run: as §1

| Cell Line | relative viability ([1]; first compound 0.08 µM) | relative viability ([1]; first compound 0.8 µM) | relative viability ([1]; first compound 2.53 µM) | relative viability ([1]; first compound 8 µM) | relative viability ([2]; first compound 0.02 µM) | relative viability ([2]; first compound 0.06325 µM) | relative viability ([2]; first compound 0.2 µM) | relative viability ([2]; first compound 0.6325 µM) | relative viability ([2]; first compound 2 µM) | relative viability ([3]; first compound 0.02 µM) | relative viability ([3]; first compound 0.06325 µM) | relative viability ([3]; first compound 0.2 µM) | relative viability ([3]; first compound 0.6325 µM) | relative viability ([3]; first compound 2 µM) | relative viability ([4]; first compound 0.02 µM) | relative viability ([4]; first compound 0.06325 µM) | relative viability ([4]; first compound 0.2 µM) | relative viability ([4]; first compound 0.6325 µM) | relative viability ([4]; first compound 2 µM) |
| --- | --- | --- | --- | --- | --- | --- | --- | --- | --- | --- | --- | --- | --- | --- | --- | --- | --- | --- | --- |
| NCI-H838 | 0.232 | 0.29 | 0.258 | 0.189 | 0.484 | 0.541 | 0.477 | 0.431 | 0.341 | 0.287 | 0.261 | 0.239 | 0.146 | 0.127 | 1.06 | 0.987 | 0.952 | 0.884 | 0.487 |
| HARA | 0.191 | 0.231 | 0.259 | 0.259 | 0.602 | 0.521 | 0.557 | 0.456 | 0.276 | 0.121 | 0.123 | 0.138 | 0.117 | 0.0945 | 0.953 | 1.11 | 1.09 | 0.882 | 0.528 |
| NCI-H23 | 0.763 | 0.799 | 0.659 | 0.569 | 0.32 | 0.344 | 0.3 | 0.268 | 0.234 | 0.364 | 0.264 | 0.292 | 0.193 | 0.121 | 0.85 | – | 0.943 | 0.815 | 0.493 |
| LOU-NH91 | 0.371 | 0.371 | 0.405 | 0.446 | 0.813 | 0.788 | 0.802 | 0.771 | 0.689 | 0.736 | 0.671 | 0.616 | 0.523 | 0.344 | 0.946 | 0.952 | 0.901 | 0.925 | 0.845 |
| LCLC-103H | 0.488 | 0.446 | 0.452 | 0.466 | 0.714 | 0.72 | 0.757 | 0.488 | 0.472 | 0.495 | 0.35 | 0.366 | 0.308 | 0.214 | 0.872 | 0.777 | 0.789 | 0.643 | 0.474 |
| SW 1573 | 0.896 | 0.799 | 0.77 | 0.671 | 0.526 | 0.46 | 0.486 | 0.311 | 0.22 | 0.237 | 0.186 | 0.242 | 0.179 | 0.164 | 0.931 | 1.07 | 1.09 | 0.877 | 0.688 |
| IA-LM | – | – | – | – | – | – | – | – | – | – | – | – | – | – | 0.999 | 1.38 | 0.867 | 0.922 | 0.326 |
| CAL-12T | 1.31 | 1.06 | 1.16 | 1.28 | – | – | – | – | – | 0.284 | 0.364 | 0.319 | 0.186 | 0.206 | 1.12 | 1.49 | 1.19 | 1.21 | 0.941 |
| NCI-H1563 | 0.929 | 0.847 | 0.765 | 0.726 | – | – | – | – | – | – | – | – | – | – | 0.833 | 0.911 | 0.862 | 0.856 | 0.823 |
| NCI-H1703 | – | – | – | – | – | – | – | – | – | – | – | – | – | – | 0.284 | 0.413 | 0.371 | 0.305 | 0.285 |
| EBC-1 | – | – | – | – | – | – | – | – | – | – | – | – | – | – | 0.115 | 0.0996 | 0.111 | 0.102 | 0.0879 |
| NCI-H1792 | 0.965 | 0.754 | 0.745 | 0.649 | 0.613 | 0.505 | 0.48 | 0.354 | 0.196 | – | – | – | – | – | – | – | – | – | – |
| ABC-1 | – | – | – | – | 1.04 | 1.41 | 1.1 | 0.91 | 0.626 | 0.175 | 0.237 | 0.189 | 0.2 | 0.193 | 1.09 | 1.07 | 0.996 | 1.04 | 0.884 |
| NCI-H1648 | 0.617 | 0.868 | 0.688 | 0.683 | 0.476 | 0.524 | 0.416 | 0.326 | 0.285 | 0.566 | 0.483 | 0.414 | 0.411 | 0.341 | – | – | – | – | – |
| A549 | – | – | – | – | 0.27 | 0.251 | 0.205 | 0.177 | 0.0922 | – | – | – | – | – | 1.05 | 0.987 | 0.988 | 1.06 | 0.225 |
| NCI-H1299 | – | – | – | – | – | – | – | – | – | – | – | – | – | – | 1.01 | 1.08 | 1.1 | 1.05 | 0.806 |
| NCI-H1623 | – | – | – | – | – | – | – | – | – | 0.498 | 0.442 | 0.373 | 0.352 | 0.305 | 0.791 | 0.801 | 0.954 | 0.822 | 0.648 |
| NCI-H2228 | 0.369 | 0.392 | 0.332 | 0.33 | – | – | – | – | – | 0.258 | 0.142 | 0.207 | 0.0934 | 0.11 | 0.911 | 0.855 | 1 | 0.836 | 0.446 |
| NCI-H727 | – | – | – | – | 0.913 | 1.35 | 1.03 | 0.853 | 0.681 | 0.605 | 0.647 | 0.497 | 0.392 | 0.403 | 0.945 | 0.807 | 0.82 | 0.865 | 0.676 |
| HCC-44 | 0.612 | 0.621 | 0.679 | 0.633 | 0.997 | 0.841 | 0.938 | 0.721 | 0.611 | 0.898 | 0.581 | 0.553 | 0.309 | 0.221 | – | – | – | – | – |
| NCI-H522 | 0.953 | 0.867 | 0.98 | 0.889 | 0.65 | 0.684 | 0.693 | 0.666 | 0.639 | 0.576 | 0.509 | 0.516 | 0.48 | 0.371 | – | – | – | – | – |
| Calu-6 | – | – | – | – | – | – | – | – | – | – | – | – | – | – | 1.12 | 0.912 | 0.987 | 0.851 | 0.648 |
